Source: US20230107770A1, “METHOD OF ENHANCING IMMUNOTHERAPY USING ER STRESS PATHWAY INHIBITORS” (H. LEE MOFFITT CANCER CENTER AND RESEARCH INSTITUTE, INC., priority 2020, published 2023)

Tested on: FSHR+-ID8-Defb29/Vegfa ovarian tumors
Assay: ER stress-targeting therapy combined with FSH-CER T cells in ovarian tumor-bearing mice
Type: in vivo
Conditions: MKC8866 i.p. 300 mg/kg or AMG-44 i.p. 12 mg/kg daily for one week; FSH-CER T cells days 7 and 14
Experimental: The role of the PERK-Chop in the expansion of tumor TRM cells using conditional T cell Chop-null mice was evaluated. In agreement with the inhibitory effect of Chop in TRM development, higher frequency of TRM cells was detected in tumors from T cell-Chop^KO mice compared to controls (FIG. 23A). Next, we tested the effect of the inhibition of PERK (AMG-44) and IRE 1α (MKC8866) during the expansion of IL-2-supplemented human FSH-CER T cells. […] Also, we evaluated the therapeutic effect of the combination of ER stress-targeting therapy and FSH-CER. […]
Activation of the UPR in cancer cells mediates adaptation processes in the TME, whereas UPR priming in tumor-myeloid cells promotes their immunoregulatory activity. […] As main readouts of therapeutic efficacy, we will monitor tumor burden, overall survival, and tumor CER-T cell infiltration, persistence, and cytotoxic capacity (Exp. C.2.1.1). […] Additionally, we will sort DCs and MDSC from tumor sites and lymphoid organs to quantify the expression of ER stress gene markers, their ability to impair T cell proliferation and IFNγ production, and the levels of the UPR-related immunoinhibitory factors IL-6, PGE2, Cox-2, mPGES-1, and Arginase I. All required methods are established by our groups. […]

Cc1ccc2cc(-c3c(C)ccc(C(=O)c4c(-c5ccccc5)n(C)n(-c5ccccc5)c4=O)c3N)ccc2n1 [AMG-44]
survival of hosts receiving FSH-CER T cells plus inhibitor: Prolonged survival
